Read-outs that look alike come from different tables or passages of the source.
Assays:
[1] = molecular target: T1, large-conductance calcium-activated potassium (maxi-K) channels from bovine aortic smooth muscle (Bos taurus, UniProt Q28204); experiment: Patch clamp recordings of maxi-K channel currents in excised inside-out membrane patches; format: biochemical; details: for block of channel activity / effect on channel open probability: 1 μM
T1 construct: membrane patches excised from cultured bovine aortic smooth muscle cells; endogenous in cells; host or cells: cultured bovine aortic smooth muscle cells
Procedure: Pipettes were typically filled with solutions containing (mM): 150 KCl, 10 Hepes (4-(2-hydroxyethyl)-1-piperazine […]), 1 Mg, 0.01 Ca, and adjusted to pH 7.20 with 3.7 mM KOH. After forming a high resistance (>10^9 ohms) seal between the sarcolemmal membrane and the pipette, the pipette was withdrawn from the cell, forming an excised inside-out membrane patch. […] An AXOPATCH 1C amplifier (Axon Instruments, Foster City, Calif.) with a CV-4 headstage was used to control the voltage and to measure the currents flowing across the membrane patch. The input to the headstage was connected to the pipette solution with a Ag/AgCl wire, and the amplifier ground was connected to the bath solution with a Ag/AgCl wire covered with a tube filled with agar dissolved in 0.2 M KCl. Maxi-K channels were identified by their large single channel conductance (˜250 pS) and sensitivity of channel open probability to membrane potential and intracellular calcium concentration.
Data were stored on a RACAL STORE 4DS FM tape recorder (Racal Recorders, Vienna, Va.) or on digital video tape using a video casette recorder after digitizing the signal with VR-10 (Instrutech Corp., Belmont, N.Y.) PCM video encoder. The signal was also recorded on chart paper with a GOULD 2400S chart recorder (Gould Inc., Cleveland, Ohio). For quantitative analysis, the data was played into a DEC 11-73 (Digital Equipment Corp., Maynard, Mass.) after digitization with a DT2782-8D1A analogue to digital converter (Data Translation Inc., Marlboro, Mass.), or played into a Mac IIx or Quadra 700 computer (Apple Computers) after digitization with an ITC-16 interface (Instrutech Corp., Belmont, N.Y.).

[2] = molecular target: T2, [125I]ChTX receptor in bovine aortic sarcolemma membrane vesicles (Bos taurus, UniProt Q28204); experiment: [125I]ChTX binding assay with sarcolemma membrane vesicles; details: for inhibition at 10 µM: read-out: inhibition of [125I]ChTX binding
T2 construct: bovine aortic sarcolemma membrane vesicles; from tissue; host or cells: bovine aortic sarcolemma membrane vesicles
Procedure: The interaction of [^125I]ChTX with bovine aortic sarcolemma membrane vesicles was determined under conditions as described (Vazquez et al., 1989, J. Biol. Chem. 264, 20902-20909). Briefly, sarcolemma membrane vesicles were incubated in 12×75 polystyrene tubes with ca. 25 pM [^125I]ChTX (2200 Ci/mmol), in the absence or presence of test compound, in a media consisting of 20 mM NaCl, 20 mM Tris-HCl pH 7.4, 0.1% bovine serum albumin, 0.1% digitonin. Nonspecific binding was determined in the presence of 10 nM ChTX. Incubations were carried out at room temperature until ligand binding equilibrium is achieved at ca. 90 min. At the end of the incubation period, samples were diluted with 4 mL ice-cold 100 mM NaCl, 20 mM Hepes-Tris pH 7.4 and filtered through GF/C glass fiber filters that have been presoaked in 0.5% polyethylenimine. Filters were rinsed twice with 4 mL ice-cold quench solution. Radioactivity associated with filters was determined in a gamma counter. Specific binding data in the presence of each compound (difference between total binding and nonspecific binding) was assessed relative to an untreated control.

[3] = concentrations from 1 nM to 100 μM

T1 sequence (Q28204 whole entry): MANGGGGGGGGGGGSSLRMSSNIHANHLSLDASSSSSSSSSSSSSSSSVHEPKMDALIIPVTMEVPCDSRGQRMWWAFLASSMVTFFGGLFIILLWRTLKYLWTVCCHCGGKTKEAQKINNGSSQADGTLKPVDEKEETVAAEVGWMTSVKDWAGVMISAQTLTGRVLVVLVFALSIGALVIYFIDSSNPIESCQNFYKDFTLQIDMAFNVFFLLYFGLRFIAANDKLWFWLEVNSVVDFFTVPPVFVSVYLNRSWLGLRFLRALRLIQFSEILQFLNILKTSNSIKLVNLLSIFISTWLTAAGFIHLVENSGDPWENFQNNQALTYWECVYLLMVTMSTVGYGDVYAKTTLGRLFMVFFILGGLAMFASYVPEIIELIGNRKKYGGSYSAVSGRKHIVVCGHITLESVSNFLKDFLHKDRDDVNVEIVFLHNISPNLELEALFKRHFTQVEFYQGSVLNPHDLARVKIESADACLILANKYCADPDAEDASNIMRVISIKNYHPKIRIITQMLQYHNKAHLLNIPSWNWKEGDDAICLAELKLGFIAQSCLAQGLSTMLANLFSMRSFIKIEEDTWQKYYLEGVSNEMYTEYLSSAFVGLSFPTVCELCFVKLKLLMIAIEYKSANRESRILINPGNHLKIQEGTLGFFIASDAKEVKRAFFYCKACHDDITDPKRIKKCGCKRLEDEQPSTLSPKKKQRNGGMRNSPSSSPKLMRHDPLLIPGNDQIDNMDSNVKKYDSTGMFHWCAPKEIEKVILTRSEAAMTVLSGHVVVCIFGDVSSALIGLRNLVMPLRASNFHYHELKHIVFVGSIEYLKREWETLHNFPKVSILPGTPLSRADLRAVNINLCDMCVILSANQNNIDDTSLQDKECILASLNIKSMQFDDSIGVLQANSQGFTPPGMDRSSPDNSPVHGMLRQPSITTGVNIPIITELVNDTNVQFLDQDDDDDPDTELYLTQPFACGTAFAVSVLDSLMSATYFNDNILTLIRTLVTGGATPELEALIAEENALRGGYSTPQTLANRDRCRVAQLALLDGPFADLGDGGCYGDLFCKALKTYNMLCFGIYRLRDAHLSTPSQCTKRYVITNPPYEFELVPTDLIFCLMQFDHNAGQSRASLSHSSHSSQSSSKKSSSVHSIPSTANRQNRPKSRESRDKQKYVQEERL
T1 sequence (Q28067 whole entry partner): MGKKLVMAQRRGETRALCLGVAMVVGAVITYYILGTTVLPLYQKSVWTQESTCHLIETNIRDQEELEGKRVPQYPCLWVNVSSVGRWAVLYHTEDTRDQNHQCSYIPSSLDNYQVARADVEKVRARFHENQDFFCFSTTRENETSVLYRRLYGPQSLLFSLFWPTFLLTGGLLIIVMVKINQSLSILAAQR
T2 sequence (Q28204 whole entry): as the sequence (Q28204 whole entry) above
T2 sequence (Q28067 whole entry partner): as the sequence (Q28067 whole entry partner) above

CC(C)=CCOC(C)(C)[C@@H]1CC2OC23[C@H](CC[C@@]2(C)[C@H]3CC[C@H]3Cc4c([nH]c5ccccc45)[C@@]32C)O1 (stereo partly drawn) [Compound A]
IC50 [1]: ~100 nM
strength as blocker of maxi-K channels compared with Compound C [1]: weaker
block of maxi-K channels ([1]; 10 nM): blocked a small fraction of channel activity
block of channel activity ([1]; 100 nM): approximately one half
block of channel activity / effect on channel open probability [1]: nearly all
inhibition at 10 µM [2]: 2%

CC(C)=CCOC(C)(C)[C@H]1O[C@H]2CC[C@]3(C)[C@@]4(C)c5[nH]c6ccc(CC=C(C)C)cc6c5C[C@@H]4CC[C@@]3(O)C23OC3[C@@H]1O (stereo partly drawn) [Compound B]
IC50 [1]: < 1 nM
Ki [1]: < 1 nM
block of maxi-K channels ([1]; 1 nM): nearly complete block

CC(C)=CCc1cccc2[nH]c3c(c12)C[C@@H]1CC[C@@]2(O)C45OC4[C@@H]4OC(C=C(C)C)OC(C)(C)[C@H]4OC5=CC[C@]2(C)[C@@]31C (stereo partly drawn) [Compound C]
IC50 [1]: < 10 nM
block of maxi-K channels ([1]; 10 nM): rapid and complete block
reversal of block during washout ([1]; 10 nM, brief (~10 min) washout): not reversed
inhibition at 10 µM [2]: 29%

CC(C)(O)[C@@H]1CC(O)C2(C(=O)O)C(CC[C@@]3(C)[C@H]2CC[C@H]2Cc4c([nH]c5ccccc45)[C@@]23C)O1 (stereo partly drawn) [Compound D, hydroxypaspalinic acid]
IC50 [1]: ~1000 nM
strength as blocker of maxi-K channels compared with Compound C [1]: weaker
reduction in channel open probability ([1]; 10 nM): < 50%
block of channel activity / effect on channel open probability [1]: complete block was not observed
effect on [125I]ChTX binding [2, 3]: did not have any effect

COC(=O)C12C(O)C[C@@H](C(C)(C)O)OC1CC[C@@]1(C)[C@H]2CC[C@H]2Cc3c([nH]c4ccccc34)[C@@]21C (stereo partly drawn) [Compound E, methyl hydroxypaspalinate]
IC50 [1]: > 10000 nM
strength as blocker of maxi-K channels compared with Compound C [1]: weaker
block of channel activity / effect on channel open probability [1]: no significant effect
block of channel activity ([1]; 10 μM, slowly increasing over 5-10 minutes): incomplete block
effect on [125I]ChTX binding [2, 3]: did not affect

CC1(C)ON=C2C=C3[C@H](CC[C@@]4(C)[C@@]3(O)CC[C@H]3Cc5c([nH]c6ccccc56)[C@@]34C)O[C@@H]21 [Compound F, Paxizoline]
decrease in channel activity ([1]; 10 nM): ~50%
IC50 ([1]; excised inside-out patches, compound added to bath, read-out: [50% CHANNEL BLOCK]): ~10 nM
effect on [125I]ChTX binding ([2]; concentrations above 5 μM): concentration-dependent inhibition
effect on amount of toxin bound to its receptor ([2]; range of 50 nM to 2 μM): small increase
maximum level of inhibition (saturation) ([2]; tested from 1 nM to 100 μM): ca. 32 % control

CC(C)=CC1O[C@H]2C3OC34C(=CC[C@]3(C)[C@@]5(C)c6[nH]c7cccc(CC8OC8(C)C)c7c6C[C@@H]5CC[C@@]43O)O[C@@H]2C(C)(C)O1 (stereo partly drawn) [Compound G]
IC50 [1]: < 0.1 nM
channels blocked ([1]; 0.1 nM): 82%
channels blocked ([1]; 1 nM): 98.6%
channel block ([1]; 10 nm): > 99%
inhibition at 10 µM [2]: 35%

Source: patent publication US6924306B2, “Method for treating ocular hypertension” (priority 2000, dated 2005)
